Test results published in patent US20260364079A1 (Principia Biopharma Inc., priority 2022, published 2026).

Assay: phase 1/2 study in relapsed/refractory ITP (NCT03395210), safety
Details: for Time From Initial Treatment to Rescue Use: single patient
Excerpt: The Safety Population was used for all safety analyses.
Pre-existing conditions that worsened during a study were reported as AEs.
Safety was graded per NCI CTCAE, version 4.0.

[1] = treatment-related TEAE, any grade
[2] = treatment-related TEAE, grade 1

For `CC(C)(C=C(C#N)C(=O)N1CCC[C@@H](n2nc(-c3ccc(Oc4ccccc4)cc3F)c3c(N)ncnc32)C1)N1CCN(C2COC2)CC1` (mixture of isomers) [rilzabrutinib, (R)-2-[3-[4-amino-3-(2-fluoro-4-phenoxy-phenyl)pyrazolo[3,4-d]pyrimidin-1-yl]piperidine-1-carbonyl]-4-methyl-4-[4-(oxetan-3-yl)piperazin-1-yl]pent-2-enenitrile], the “Rescue medication received but discontinued due to unrelated adverse events” value (in vivo) was “Two”, the “TEAE leading to discontinuation: grade 3 GI hemorrhage” value (in vivo) was 1 patient and the “TEAE leading to discontinuation: grade 4 Evans syndrome” value (in vivo) was 1 patient. For the same compound, the “TEAE leading to discontinuation: grade 4 thrombocytopenia” value (in vivo) was 1 patient, the “TEAE resulting in study drug discontinuation” value (in vivo) was “Seven” and the “TEAE resulting in study drug discontinuation: administrative and site conditions” value (in vivo) was 1 (2%) patients (%). The “TEAE resulting in study drug discontinuation: gastrointestinal (GI) disorders” value (in vivo) was 4 (70%) patients (%), the “TEAE resulting in study drug discontinuation: lymphatic system disorders” value (in vivo) was 2 (40%) patients (%) and the “TEAEs leading to study drug discontinuation reported as serious adverse events” value (in vivo) was “Four”. The “Use of rescue medication as cause of study discontinuation” value (in vivo) was “four”, the “serious adverse events leading to discontinuation related to treatment” value (in vivo) was “none were related to rilzabrutinib treatment” and the “toxicity across all doses” value (in vivo) was “only low-grade toxicity across all doses”. For the same compound, the “treatment-related discontinuation: grade 1 fatigue” value (in vivo) was 1 patient, the “treatment-related discontinuation: grade 2 GI disorders” value (in vivo) was 2 patients and the “infections, thrombotic events, cardiac arrhythmias, liver toxicity, or increased bleeding” value (limited follow up time) was “no evidence of infections, thrombotic events, cardiac arrhythmias, liver toxicity, or increased bleeding”. For the same compound, the “adverse events typically associated with BTK inhibitors” value (neutropenia, treatment-related infections, bleeding, thrombotic events, fungal infections, atrial fibrillation) was “no signs or symptoms of adverse events typically associated with BTK inhibitors”, the “related treatment-emergent serious adverse events” value (open-label Phase 1/2 study in ITP) was “no related treatment-emergent serious adverse events” and the “Time From Initial Treatment to Rescue Use” value (shortened to “Time From Initial Treatment”) (200 mg qd, baseline 24 × 10^9/L) was “Day 36”. The “Time From Initial Treatment” value (300 mg bid, baseline 3 × 10^9/L) was “Day 29”, the “Time From Initial Treatment” value (400 mg bid, baseline 18 × 10^9/L) was “Day 11” and the Abdominal discomfort [1] was 1 (2) number of patients (percent). The Abdominal distension [1] was 4 (7) number of patients (percent), the Abdominal pain [1] was 2 (3) number of patients (percent) and the Abnormal dreams [1] was 1 (2) number of patients (percent). The Akathisia [1] was 1 (2) number of patients (percent), the Alopecia [1] was “— (represents zero events)” and the Anemia [1] was “— (represents zero events)”. For the same compound, the “Any TEAE” value [1] was 31 (52) number of patients (percent), the Arthralgia [1] was “— (represents zero events)” and the Arthropod bite [1] was “— (represents zero events)”. For the same compound, the Back pain [1] was 1 (2) number of patients (percent), the Conjunctival hemorrhage [1] was “— (represents zero events)” and the Contusion [1] was 1 (2) number of patients (percent). For the same compound, the Costochondritis [1] was “— (represents zero events)”, the Cough [1] was “— (represents zero events)” and the Decreased appetite [1] was 1 (2) number of patients (percent). The Defecation urgency [1] was 1 (2) number of patients (percent), the Diarrhea [1] was 19 (32) number of patients (percent) and the Dizziness [1] was “— (represents zero events)”. For the same compound, the Dyspepsia [1] was 1 (2) number of patients (percent), the Dyspnea [1] was “— (represents zero events)” and the Dyspnea exertional [1] was “— (represents zero events)”. The Edema [1] was 1 (2) number of patients (percent), the Epigastric discomfort [1] was 1 (2) number of patients (percent) and the Epistaxis [1] was “— (represents zero events)”. For the same compound, the Erysipelas [1] was 1 (2) number of patients (percent), the Fatigue [1] was 6 (10) number of patients (percent) and the Frequent bowel movements [1] was 1 (2) number of patients (percent). For the same compound, the Headache [1] was 2 (3) number of patients (percent), the Heavy menstrual bleeding [1] was “— (represents zero events)” and the Hypoesthesia [1] was 1 (2) number of patients (percent). The Hypophosphatemia [1] was “— (represents zero events)”, the I lot flush [1] was 1 (2) number of patients (percent) and the Ilypokalemia [1] was 1 (2) number of patients (percent). The “Increased white blood cell count” value [1] was 1 (2) number of patients (percent), the Maculo-papular rash [1] was 1 (2) number of patients (percent) and the Malaise [1] was 1 (2) number of patients (percent). The Micturition urgency [1] was 1 (2) number of patients (percent), the Muscle spasms [1] was 1 (2) number of patients (percent) and the Myalgia [1] was 1 (2) number of patients (percent). The Nasal congestion [1] was “— (represents zero events)”, the Nasopharyngitis [1] was “— (represents zero events)” and the Nausea [1] was 18 (30) number of patients (percent). For the same compound, the Peripheral swelling [1] was “— (represents zero events)”, the Petechiae [1] was “— (represents zero events)” and the Pruritus [1] was 2 (3) number of patients (percent). For the same compound, the Purpura [1] was “— (represents zero events)”, the Rash [1] was 1 (2) number of patients (percent) and the Thrombocytopena [1] was “— (represents zero events)”. The Upper abdominal pain [1] was 2 (3) number of patients (percent), the “Upper respiratory tract infection” value [1] was “— (represents zero events)” and the Urinary tract infection [1] was “— (represents zero events)”. For the same compound, the Vomiting [1] was 3 (5) number of patients (percent), the diarrhea [1] was 32% and the fatigue [1] was 10%. The nausea [1] was 30%, the Abdominal discomfort [2] was 1 (2) number of patients (percent) and the Abdominal distension [2] was 4 (7) number of patients (percent). For the same compound, the Abdominal pain [2] was “— (represents zero events)”, the Abnormal dreams [2] was 1 (2) number of patients (percent) and the Akathisia [2] was 1 (2) number of patients (percent). The Alopecia [2] was “— (represents zero events)”, the Anemia [2] was “— (represents zero events)” and the “Any TEAE” value [2] was 27 (45) number of patients (percent). The Arthralgia [2] was “— (represents zero events)”, the Arthropod bite [2] was “— (represents zero events)” and the Back pain [2] was “— (represents zero events)”. The Conjunctival hemorrhage [2] was “— (represents zero events)”, the Contusion [2] was 1 (2) number of patients (percent) and the Costochondritis [2] was “— (represents zero events)”. The Cough [2] was “— (represents zero events)”, the Decreased appetite [2] was 1 (2) number of patients (percent) and the Defecation urgency [2] was “— (represents zero events)”. The Diarrhea [2] was 16 (27) number of patients (percent), the Dizziness [2] was “— (represents zero events)” and the Dyspepsia [2] was 1 (2) number of patients (percent). For the same compound, the Dyspnea [2] was “— (represents zero events)”, the Dyspnea exertional [2] was “— (represents zero events)” and the Edema [2] was 1 (2) number of patients (percent). The Epigastric discomfort [2] was “— (represents zero events)”, the Epistaxis [2] was “— (represents zero events)” and the Erysipelas [2] was “— (represents zero events)”. The Fatigue [2] was 5 (8) number of patients (percent), the Frequent bowel movements [2] was “— (represents zero events)” and the Headache [2] was 2 (3) number of patients (percent). The Heavy menstrual bleeding [2] was “— (represents zero events)”, the Hypoesthesia [2] was “— (represents zero events)” and the Hypophosphatemia [2] was “— (represents zero events)”. The I lot flush [2] was “— (represents zero events)”, the Ilypokalemia [2] was 1 (2) number of patients (percent) and the “Increased white blood cell count” value [2] was “— (represents zero events)”. For the same compound, the Maculo-papular rash [2] was 1 (2) number of patients (percent), the Malaise [2] was 1 (2) number of patients (percent) and the Micturition urgency [2] was 1 (2) number of patients (percent). The Muscle spasms [2] was 1 (2) number of patients (percent), the Myalgia [2] was 1 (2) number of patients (percent) and the Nasal congestion [2] was “— (represents zero events)”. For the same compound, the Nasopharyngitis [2] was “— (represents zero events)”.
